Measurements published in patent US7829728B2, “Diarymethyl and related compounds” (Theravance, Inc., priority 2003, dated 2010).
pEC50, pKi: −log10 of the molar value.

What was measured:
[1] = molecular target: human β2 adrenergic receptor (Homo sapiens, UniProt P07550); assay: Whole-cell cAMP Flashplate assay in CHO cell lines heterologously expressing human β2 adrenergic receptor (Assay Test Procedure C); type: cell-based; design: expressed in transfected cells; host or cells: CHO cells, membranes
Sequence of human β2 adrenergic receptor (P07550 whole entry): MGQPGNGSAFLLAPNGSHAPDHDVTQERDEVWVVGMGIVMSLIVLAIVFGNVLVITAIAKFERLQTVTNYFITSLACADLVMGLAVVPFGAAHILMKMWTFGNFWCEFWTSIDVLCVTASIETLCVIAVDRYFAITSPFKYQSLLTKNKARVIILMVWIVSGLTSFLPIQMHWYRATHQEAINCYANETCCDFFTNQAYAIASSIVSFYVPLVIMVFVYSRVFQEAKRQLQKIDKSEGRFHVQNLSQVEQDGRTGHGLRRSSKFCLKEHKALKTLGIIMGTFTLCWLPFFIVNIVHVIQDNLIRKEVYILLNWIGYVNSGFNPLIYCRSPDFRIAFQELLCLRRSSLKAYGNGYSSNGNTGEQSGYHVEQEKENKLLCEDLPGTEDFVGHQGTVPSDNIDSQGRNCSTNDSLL
Description: cAMP assays were performed in a radioimmunoassay format using the Flashplate Adenylyl Cyclase Activation Assay System with [^125I]-cAMP (NEN SMP004, PerkinElmer Life Sciences Inc., Boston, Mass.), according to the manufacturers instructions. For the determination of β receptor agonist potency (EC50), CHO-K1 cell lines stably expressing cloned human β1, β2 or β3 adrenergic receptors were grown to near confluency in HAM's F-12 media supplemented with 10% FBS and Geneticin (250 μg/mL). Cells were rinsed with PBS and detached in dPBS (Dulbecco's Phosphate Buffered Saline, without CaCl2 and MgCl2) containing 2 mM EDTA or Trypsin-EDTA solution (0.05% trypsin/0.53 mM EDTA). After counting cells in Coulter cell counter, cells were pelleted by centrifugation at 1,000 rpm and re-suspended in stimulation buffer containing IBMX (PerkinElmer Kit) pre-warmed to room temperature to a concentration of 1.6×10^6 to 2.8×10^6 cells/mL. About 60,000 to 80,000 cells per well were used in this assay. […] The amount of cAMP produced (pmol/well) was calculated based on the counts observed for the samples and cAMP standards as described in the manufacturer's user manual. Data were analyzed by nonlinear regression analysis with the GraphPad Prism Software package (GraphPad Software, Inc., San Diego, Calif.) with the sigmoidal equation. […]

[2] = molecular target: T1, M3 muscarinic receptor (hM3) (Homo sapiens, UniProt P20309); assay: Radioligand binding assay for muscarinic receptors (Assay Test Procedure B); conditions: [3H]-NMS displacement, CHO cell membranes expressing hM3
T1 construct: expressed in transfected cells; host or cells: CHO cells, membranes
T1 sequence (P20309 whole entry): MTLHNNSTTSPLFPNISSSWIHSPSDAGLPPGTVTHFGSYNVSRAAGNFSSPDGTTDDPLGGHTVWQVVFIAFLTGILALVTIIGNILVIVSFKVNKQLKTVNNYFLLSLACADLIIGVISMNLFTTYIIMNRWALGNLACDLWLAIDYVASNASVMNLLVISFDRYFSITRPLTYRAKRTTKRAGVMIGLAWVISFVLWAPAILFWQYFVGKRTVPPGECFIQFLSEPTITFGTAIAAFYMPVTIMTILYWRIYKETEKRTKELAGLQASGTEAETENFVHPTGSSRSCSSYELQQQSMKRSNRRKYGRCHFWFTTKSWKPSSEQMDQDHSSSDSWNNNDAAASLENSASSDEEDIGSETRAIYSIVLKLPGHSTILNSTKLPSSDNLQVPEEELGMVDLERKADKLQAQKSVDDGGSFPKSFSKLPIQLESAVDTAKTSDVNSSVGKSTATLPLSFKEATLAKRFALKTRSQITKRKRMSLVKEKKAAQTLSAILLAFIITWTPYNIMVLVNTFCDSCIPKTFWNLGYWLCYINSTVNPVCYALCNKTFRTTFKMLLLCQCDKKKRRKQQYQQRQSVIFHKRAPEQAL
Description: CHO cell lines stably expressing cloned human hM1, hM2, hM3 and hM4 muscarinic receptor subtypes, respectively, were grown to near confluency in HAM's F-12 media supplemented with 10% FBS and 250 μg/mL Geneticin. The cells were grown in a 5% CO2, 37° C. incubator and lifted with 2 mM EDTA in dPBS. Cells were collected by 5 minute centrifugation at 650×g, and cell pellets were either stored frozen at −80° C. or membranes were prepared immediately for use. For membrane preparation, cell pellets were resuspended in lysis buffer and homogenized with a Polytron PT-2100 tissue disrupter (Kinematica AG; 20 seconds×2 bursts). Crude membranes were centrifuged at 40,000×g for 15 minutes at 4° C. […] The protein concentration of the membrane suspension was determined by the method described in Lowry et al., 1951, Journal of Biochemistry, 193, 265. […]
Radioligand binding assays for cloned human muscarinic receptors were performed in 96-well microtiter plates in a total assay volume of 100 μL. […] Filter plates were rinsed three times with wash buffer (10 mM HEPES) to remove unbound radioactivity. […] The plates were then counted in a PerkinElmer Topcount liquid scintillation counter (PerkinElmer Inc., Wellesley, Mass.). Binding data were analyzed by nonlinear regression analysis with the GraphPad Prism Software package (GraphPad Software, Inc., San Diego, Calif.) using the one-site competition model. […]

NC(=O)C(c1ccccc1)(c1ccccc1)[C@@H]1CCN(CCCCCCCCCNCC(O)c2ccc(O)c3[nH]c(=O)ccc23)C1 (mixture of isomers) [Example 1, 2-((S)-1-{9-[2-Hydroxy-2-(8-hydroxy-2-oxo-1,2-dihydroquinolin-5-yl)ethylamino]-nonyl}pyrrolidin-3-yl)-2,2-diphenylacetamide]
pEC50 ([1]; cAMP, CHO-K1 cells expressing cloned human β2 receptor): > 8.00
ratio of EC50(β1)/EC50(β2) ([1]; receptor subtype selectivity, functional cAMP, human β1 versus β2): greater than 10
pKi [2]: > 7.30
